Measurements from article PMC8343220, “The selectivity of α‐adrenoceptor agonists for the human α1A, α1B, and α1D‐adrenoceptors” (Pharmacology Research & Perspectives, 2021).

Assays:
[1] = target: T1, human α1D‐adrenoceptor (full length) (Homo sapiens, UniProt P25100); assay: ERK1/2‐phosphorylation (Surefire Alphascreen), CHO‐α1D cells; assay type: cell-based; conditions: CHO‐α1D cells; for EC50: log values given negative, read-out: ERK1/2‐phosphorylation Log EC50 (converted); for ERK1/2‐phosphorylation % PDBu: maximal response as % of PDBu
T1 construct: human α1D‐adrenoceptor (full length) were used; expressed in transfected cells; host or cells: CHO-K1
T1 sequence (P25100 1-572): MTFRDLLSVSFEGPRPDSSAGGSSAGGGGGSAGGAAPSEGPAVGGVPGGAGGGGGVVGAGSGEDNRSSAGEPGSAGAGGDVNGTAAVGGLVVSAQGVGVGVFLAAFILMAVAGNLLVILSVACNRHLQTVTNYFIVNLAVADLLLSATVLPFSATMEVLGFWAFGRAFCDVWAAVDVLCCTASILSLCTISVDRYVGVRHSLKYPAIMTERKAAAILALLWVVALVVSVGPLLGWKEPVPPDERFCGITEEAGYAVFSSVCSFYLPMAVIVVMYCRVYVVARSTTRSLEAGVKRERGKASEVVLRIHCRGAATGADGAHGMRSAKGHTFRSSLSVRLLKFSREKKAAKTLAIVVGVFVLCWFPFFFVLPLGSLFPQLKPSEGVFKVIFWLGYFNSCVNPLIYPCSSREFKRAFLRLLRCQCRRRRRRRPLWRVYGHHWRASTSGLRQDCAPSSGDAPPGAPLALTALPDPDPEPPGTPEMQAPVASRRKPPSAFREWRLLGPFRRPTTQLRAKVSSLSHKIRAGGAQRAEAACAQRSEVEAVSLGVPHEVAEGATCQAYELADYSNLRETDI

human α1A‐adrenoceptor [2] = target: T2, human α1A‐adrenoceptor (Homo sapiens, UniProt P35348); assay: ^3H‐cAMP accumulation, CHO‐α1A cells; assay type: cell-based; conditions: CHO‐α1A cells; for EC50: 5 h, read-out: cAMP accumulation Log EC50 (converted); for cAMP accumulation % forskolin: % of 10 µM forskolin response
T2 construct: expressed in transfected cells; host or cells: CHO-K1
T2 sequence (P35348 1-466): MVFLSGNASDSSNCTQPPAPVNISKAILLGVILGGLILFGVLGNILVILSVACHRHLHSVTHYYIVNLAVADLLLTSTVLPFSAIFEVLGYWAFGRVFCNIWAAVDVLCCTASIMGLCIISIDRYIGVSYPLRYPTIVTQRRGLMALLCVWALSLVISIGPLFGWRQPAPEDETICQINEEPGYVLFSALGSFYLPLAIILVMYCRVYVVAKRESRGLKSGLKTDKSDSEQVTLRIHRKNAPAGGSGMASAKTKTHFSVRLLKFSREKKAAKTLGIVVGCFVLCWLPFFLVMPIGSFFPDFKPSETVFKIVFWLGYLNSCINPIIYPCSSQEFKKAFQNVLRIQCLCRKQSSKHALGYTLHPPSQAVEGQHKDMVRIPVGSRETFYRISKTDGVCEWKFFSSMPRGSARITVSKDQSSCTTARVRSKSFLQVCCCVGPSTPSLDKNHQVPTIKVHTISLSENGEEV

[3] = target: T1, human α1D‐adrenoceptor (full length); assay: Intracellular free calcium mobilization, CHO‐α1D cells; assay type: cell-based; conditions: CHO‐α1D cells; for Log efficacy ratio KD /EC50: intrinsic efficacy ratio, binding KD / calcium EC50; for EC50: log values given negative, read-out: Intracellular calcium release Log EC50 (converted); for Intracellular calcium release % ionomycin: maximal response as % of 10 µM ionomycin
human α1B‐adrenoceptor [4] = target: T3, human α1B‐adrenoceptor (Homo sapiens, UniProt P35368); assay: ^3H‐cAMP accumulation, CHO‐α1B cells; assay type: cell-based; conditions: CHO‐α1B cells
T3 construct: expressed in transfected cells; host or cells: CHO-K1
T3 sequence (P35368 1-520): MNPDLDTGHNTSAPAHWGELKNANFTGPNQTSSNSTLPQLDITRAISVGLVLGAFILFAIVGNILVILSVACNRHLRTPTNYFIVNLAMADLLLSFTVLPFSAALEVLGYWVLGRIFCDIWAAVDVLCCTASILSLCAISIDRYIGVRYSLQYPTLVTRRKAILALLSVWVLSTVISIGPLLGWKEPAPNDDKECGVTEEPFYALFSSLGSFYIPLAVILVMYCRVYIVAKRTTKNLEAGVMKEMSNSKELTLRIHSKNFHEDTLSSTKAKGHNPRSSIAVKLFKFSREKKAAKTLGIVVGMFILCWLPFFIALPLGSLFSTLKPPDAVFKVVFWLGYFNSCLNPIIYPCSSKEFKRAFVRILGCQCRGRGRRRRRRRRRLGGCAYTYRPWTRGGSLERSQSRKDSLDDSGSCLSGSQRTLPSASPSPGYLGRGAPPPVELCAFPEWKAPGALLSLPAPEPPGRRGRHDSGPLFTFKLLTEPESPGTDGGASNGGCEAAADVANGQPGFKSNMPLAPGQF

human α1A‐adrenoceptor [5] = target: T2, human α1A‐adrenoceptor; assay: ERK1/2‐phosphorylation (Surefire Alphascreen), CHO‐α1A cells; assay type: cell-based; conditions: CHO‐α1A cells, ^a bi‐phasic: initial stimulatory part; for EC50: 2–4 min, ^b also active in parent CHO cells, read-out: ERK1/2‐phosphorylation Log EC50 (converted); for ERK1/2‐phosphorylation % PDBu: % of 10 µM PDBu
human α1B‐adrenoceptor [6] = target: T3, human α1B‐adrenoceptor; assay: ERK1/2‐phosphorylation (Surefire Alphascreen), CHO‐α1B cells; assay type: cell-based; conditions: CHO‐α1B cells, for bi‐phasic responses the initial stimulatory part; for EC50: read-out: ERK1/2‐phosphorylation Log EC50 (converted); for ERK1/2‐phosphorylation % PDBu: maximal response as % PDBu response
human α1B‐adrenoceptor [7] = target: T3, human α1B‐adrenoceptor; assay: ^3H‐cAMP accumulation in the presence of 10 μM forskolin, CHO‐α1B cells; assay type: cell-based; conditions: CHO‐α1B cells; for cAMP accumulation (in presence of forskolin) Fold increase: fold increase of the forskolin response; for EC50: in presence of forskolin, read-out: cAMP accumulation (in presence of forskolin) Log EC50 (converted)
human α1B‐adrenoceptor [8] = target: T3, human α1B‐adrenoceptor; assay: ^3H‐prazosin whole‐cell radioligand binding, CHO‐α1B cells
[9] = target: T1, human α1D‐adrenoceptor (full length); assay: ^3H‐cAMP accumulation in the presence of 10 μM forskolin, CHO‐α1D cells; assay type: cell-based; conditions: CHO‐α1D cells; for cAMP (in presence of forskolin) Fold increase: fold increase of the forskolin response
human α1B‐adrenoceptor [10] = target: T3, human α1B‐adrenoceptor; assay: Intracellular free calcium mobilization, CHO‐α1B cells; assay type: cell-based; conditions: CHO‐α1B cells; for EC50: given as log EC50 (negative numbers), read-out: Intracellular calcium release Log EC50 (converted); for Log efficacy ratio KD /EC50: intrinsic efficacy ratio, KD from binding / EC50 calcium; for Intracellular calcium release % ionomycin: maximal response as % of 10 µM ionomycin response
human α1A‐adrenoceptor [11] = target: T2, human α1A‐adrenoceptor; assay: Intracellular free calcium mobilization, CHO‐α1A cells; assay type: cell-based; conditions: CHO‐α1A cells; for Log efficacy ratio KD /EC50: binding KD and calcium EC50; for EC50: given as log EC50 (negative), read-out: Intracellular calcium release Log EC50 (converted); for Intracellular calcium release % ionomycin: maximal response as % of 10 µM ionomycin
[12] = test system: parental CHO cell line without any transfected receptors; assay: ERK1/2‐phosphorylation, parent CHO cells without transfected receptors; assay type: cell-based, Chinese hamster
[13] = in presence of forskolin, log values given negative

Structure (SMILES) | EC50 [1] [µM] | ERK1/2‐phosphorylation % PDBu [1] [%] | EC50 (human α1A‐adrenoceptor [2]) [nM] | cAMP accumulation % forskolin (human α1A‐adrenoceptor [2]) [%] | Log efficacy ratio KD /EC50 [3] | EC50 [3] [nM] | Intracellular calcium release % ionomycin [3] [%] | EC50 (human α1A‐adrenoceptor [5]) [nM] | ERK1/2‐phosphorylation % PDBu (human α1A‐adrenoceptor [5]) [%] | EC50 (human α1B‐adrenoceptor [6]) [nM] | ERK1/2‐phosphorylation % PDBu (human α1B‐adrenoceptor [6]) [%] | cAMP accumulation (in presence of forskolin) Fold increase (human α1B‐adrenoceptor [7]) [fold] | EC50 (human α1B‐adrenoceptor [7]) [µM] | cAMP (in presence of forskolin) Fold increase [9] | EC50 (human α1B‐adrenoceptor [10]) [nM] | Log efficacy ratio KD /EC50 (human α1B‐adrenoceptor [10]) | Intracellular calcium release % ionomycin (human α1B‐adrenoceptor [10]) [%] | Log efficacy ratio KD /EC50 (human α1A‐adrenoceptor [11]) | EC50 (human α1A‐adrenoceptor [11]) [nM] | Intracellular calcium release % ionomycin (human α1A‐adrenoceptor [11]) [%] | other results
COc1ccc(OC)c(C(O)C(C)N)c1 (stereo not shown) [Methoxamine] | 8.32 | 14.2 ± 3.9 | 4900 | 120.0 ± 3.7 | 1.56 | 4170 | 22.6 ± 4.7 | 27.5 | 81.4 ± 4.5 | 2820 | 83.8 ± 5.7 | 2.42 ± 0.05 | 6.92 | 1.21 ± 0.04 | 229 | >3.64 | 59.1 ± 3.2 | 3.43 | 8.71 | 55.9 ± 2.3 | cAMP accumulation % forskolin at 100 µM (human α1B‐adrenoceptor [4]; response at 100 µM ligand (no EC50 given)): 24.2 ± 4.6%; IC50 (human α1B‐adrenoceptor [8]; CHO‐α1B cells, printed as IC50> log value): > 1 mM; EC50 [9, 13]: 10.5 µM; ERK1/2-phosphorylation % PDBu ([12]; CHO cells without transfected receptors, maximal response as % of PDBu (10μM) response, mean ± s.e.m.): No response; ERK1/2-phosphorylation Log EC50 ([12]; CHO cells without transfected receptors, mean ± s.e.m.): No response
c1ccc2c(CC3=NCCN3)cccc2c1 [Naphazoline] | 13.8 | 33.0 ± 4.7 | 269 | 57.9 ± 5.7 | 1.24 | 117 | 11.8 ± 2.2 | 4.07 | 90.9 ± 4.4 | 151 | 71.1 ± 7.2 | 1.65 ± 0.07 | 0.0055 | No response | 9.33 | 2.29 | 38.9 ± 2.9 | 2.39 | 1.17 | 50.9 ± 2.6 | cAMP accumulation % forskolin (human α1B‐adrenoceptor [4]; % forskolin maximum response): 3.9 ± 0.7%; EC50 (human α1B‐adrenoceptor [4]; read-out: cAMP accumulation Log EC50 (converted)): 12.9 nM; Kd (human α1B‐adrenoceptor [8]; Log KD α1B, ^3H‐prazosin whole cell binding, CHO‐α1B cells, given as log KD (negative), mean ± SEM): 1820 nM; Kd (human α1B‐adrenoceptor [8]; Log KD, ^3H‐prazosin binding, CHO‐α1B cells, whole‐cell binding (from Table 1), given as log KD (negative numbers)): 1820 nM; Affinity selectivity ratio α1B vs α1D (human α1B‐adrenoceptor [8]; left sub‐column: higher affinity for α1B than α1D): 1.1 fold; cAMP (in presence of forskolin) Log EC50 [9, 13]: No response; Emax at 100 µM ([12]; Cricetulus griseus, CHO, read-out: ERK1/2-phosphorylation % PDBu at 100μM): 9.2 ± 3.3%
